Assay results: PubChem BioAssay (NCI)
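Each compound was tested at five concentrations against cells in 96-well plates for 48 hours. GI50 marks 50% less growth. At the TGI there is no net growth.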

How the values were obtained:
Assay in all cases: inhibition of tumour cell growth, NCI panel, 48 h
CAKI-1 renal = system: CAKI-1 renal
HCT-15 colon = system: HCT-15 colon
HS 578T breast = system: HS 578T breast
KM12 colon = system: KM12 colon
M14 melanoma = system: M14 melanoma
NCI-H23 lung = system: NCI-H23 lung
SF-268 CNS = system: SF-268 CNS
SK-MEL-28 melanoma = system: SK-MEL-28 melanoma
UO-31 renal = system: UO-31 renal
K-562 leukemia = system: K-562 leukemia

SMILES | TGI (CAKI-1 renal) | TGI (HCT-15 colon) | TGI (HS 578T breast) | TGI (KM12 colon) | TGI (M14 melanoma) | TGI (NCI-H23 lung) | TGI (SF-268 CNS) | TGI (SK-MEL-28 melanoma) | TGI (UO-31 renal) | TGI (K-562 leukemia) | GI50 (CAKI-1 renal) | GI50 (HS 578T breast) | GI50 (SK-MEL-28 melanoma) | GI50 (UO-31 renal)
CCOC(=O)C1C(c2ccc(OC)cc2)c2c([nH]n(-c3ccccc3)c2=O)CC1(C)O (stereo not drawn) | > 100 µM | > 100 µM | > 100 µM | > 100 µM | > 100 µM | > 100 µM | > 100 µM | > 100 µM | > 100 µM | – | – | – | – | –
C=CCNC1=C2C[C@@H](C)C[C@@H](OC)[C@H](OC(=O)CCN(C)C)[C@H](C)/C=C(\C)[C@@H](OC(N)=O)[C@H](OC)/C=C\C=C(/C)C(=O)NC(=CC1=O)C2=O | 45 µM | 19.9 µM | 40.4 µM | 1.98 µM | 20.1 µM | 17.1 µM | 29.4 µM | 21.9 µM | 27.1 µM | > 43.7 µM | – | – | – | –
Cc1ccc(-n2cc(-c3ccc(Cl)cc3)c3c(=N)n(N)cnc32)cc1 | 34.3 µM | 28.9 µM | 17.5 µM | – | 17.2 µM | 30.3 µM | 25.7 µM | 26.7 µM | 24 µM | 47.6 µM | – | – | – | –
Cn1c(NC(=O)NC23CC4CC(CC(C4)C2)C3)nc2ccccc21 | > 100 µM | > 100 µM | – | > 100 µM | > 100 µM | > 100 µM | > 100 µM | > 100 µM | > 100 µM | > 100 µM | – | – | – | –
NC(Cc1ccccc1CP(=O)(O)O)C(=O)O (stereo not drawn) | > 100 µM | > 100 µM | > 100 µM | > 100 µM | > 100 µM | > 100 µM | > 100 µM | > 100 µM | > 100 µM | > 100 µM | – | – | – | –
S=c1[nH]nc(CCCCCCCCc2n[nH]c(=S)o2)o1 | > 100 µM | > 100 µM | – | > 100 µM | > 100 µM | > 100 µM | > 100 µM | > 100 µM | > 100 µM | > 100 µM | – | – | – | –
CC[C@]1(Cc2ccc(OC)c(OC)c2)C=[N+]([O-])O[C@H](OC2CCCC2(c2ccccc2)c2ccccc2)[C@@H]1OC(=O)C(C)(C)C (stereo partly drawn) | > 100 µM | 8.97 µM | 28.7 µM | 5.84 µM | > 40.8 µM | 14.8 µM | > 32.5 µM | 4.22 µM | 3.97 µM | > 100 µM | – | – | – | –
COC1OC(C(=O)O)C2OC(C)(C)OC12 (stereo not drawn) | > 100 µM | > 100 µM | – | > 100 µM | > 100 µM | > 100 µM | > 100 µM | > 100 µM | > 100 µM | > 100 µM | – | – | – | –
Cc1cc2c(cc1Cl)Sc1n[nH]c(=O)n1S2(=O)=O | > 100 µM | > 100 µM | > 100 µM | > 100 µM | > 100 µM | > 100 µM | > 100 µM | > 100 µM | > 100 µM | > 100 µM | – | – | – | –
Cc1ccccc1Nc1nc2ccccc2nc1NS(=O)(=O)c1ccccc1 | > 100 µM | > 100 µM | > 100 µM | > 100 µM | > 100 µM | > 100 µM | > 100 µM | > 100 µM | > 100 µM | > 100 µM | – | – | – | –
Cc1cc(Nc2ccc(Cl)cc2)nc(NCCCNc2ccnc3cc(Cl)ccc23)n1 | 2.9 µM | – | 3.98 µM | – | – | – | – | 3.31 µM | 2.96 µM | – | 1.53 µM | 1.84 µM | 1.81 µM | 1.49 µM
